Results reported in patent publication US11352350B2, “IRAK degraders and uses thereof” (Kymera Therapeutics, Inc., priority 2018, dated 2022).

Experiments:
IRAK4 [1] = target: T1, IRAK4 (Homo sapiens (Human), UniProt Q9NWZ3); experiment: IRAK4 MSD degradation in OCI-LY10; format: cell-based; details: MSD
How it was run: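 OCI-LY10 cells treated with 8-point 1:3 dilutions (top 1 to 10 μM final) for 4 to 24 h at 37° C. Lysate IRAK4 measured by MSD sandwich immunoassay (2H9 capture, Y279 detection, SULFO-TAG anti-rabbit). DC50 from three-parameter logistic fit.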

OCI-LY10 [2] = experiment: CTG Cell Viability Assay - OCI-LY10; format: cell-based, human; details: Homo sapiens, OCI-Ly10, 96 h, OCI-LY10, 4 days; read-out: CTG Cell Viability Assay - OCI-LY10: Average external-IC50
How it was run: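 OCI-LY10 cells exposed to 9-dose, 1:3 dilutions from 10 μM top (0.2% DMSO) for 4 days at 37° C, 5% CO2. Viability by CellTiter-Glo luminescence; IC50 from three-parameter logistic fit.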

IRAK4 [3] = target: T1, IRAK4; experiment: IRAK4 degradation in human whole blood monocyte - flow cytometry; format: cell-based; details: read-out: IRAK4 degradation in whole blood monocyte-Flow cytometry: Average external Abs IC50
Description: (§1) Human whole blood IRAK4 degradation flow assay. Whole blood was collected in heparinized tubes and plated on the same day as draw (day 0). Whole blood was aliquoted into deep well plates. Compound plates were prepared and a 10 point, 5-fold dilution was performed with a final DMSO concentration of 0.1%. Compound was added to whole blood deep well plate, sealed and incubated at 37° C., 5% CO2 for 20 hours (for 4 hour treatment, compounds were prepared and added the following day). Following the treatment incubation period (day 1), BD lyse fix (BD #558049) was added to the whole blood plate, placed on plate shaker for 30 seconds and incubated for 10 mins at room temperature. Whole blood was then spun down and washed two times with PBS/0.5% BSA, aspirated to pellet and placed into −80° C. freezer until further processing for flow. On the flow run day, whole blood plates were thawed and samples were transferred to PCR plates. The pre-perm staining cocktail (CD3 Ax488/CD8 BUV805/CD14 BUV395/CD16/56 BV711/CD19 BV785) was added to samples and incubated for 30 minutes at room temperature. Samples were washed two times and permeabilized with Methanol for 10 minutes at 4° C. Samples were washed two times and the post-perm staining cocktail (CD4 PE/IRAK4 Ax647 BD #560315) was added and incubated for 30 minutes at room temperature. Samples were washed two times with PBS/BSA and run on a BD LSRFortessa. Mononuclear cells are gated by SSCH/FSCH and single cells. Monocytes are then gated through CD14 positive gate and lymphocytes are gated through CD14 negative gate. To determine absolute DC50 and max degradation values, MFI values were normalized to DMSO max and 20 hour 10 μM min control. Twenty hour dose curves were calculated using a 4 parameter logistic regression curve fit, no constraints (Top doses were removed if hook effects were observed and the bottom was constrained to 0).

IRAK4 [4] = target: T1, IRAK4; experiment: IRAK4 degradation in human whole blood lymphocyte - flow cytometry; format: cell-based; details: read-out: IRAK4 degradation in whole blood lymphocyte-Flow cytometry: Average external Abs IC50
Description: as §1

TNFα [5] = experiment: Human PBMC LPS TNFα assay; format: cell-based; details: hPBMC, LPS stimulation, read-out: IRAK4 hPBMC LPS TNF-α inhibition: Average external-IC50
Description: Human PBMC LPS TNFα assay. Frozen PBMCs were thawed into RPMI with 10% FBS/1% penicillin/streptomycin and same day plated into 96 well plates at 200,000 PBMC/[…] media per well. Compound plates were prepared in DMSO with D300 cassette as 8-point dose curves in duplicate, starting dose 2 μM, 5-fold. Compounds are added 200 nL into cells for final 200 μL per well. Compound and cells were incubated at 37° C., 5% CO2 for 20 hours. After twenty hours of pretreatment with the compounds, LPS (01 1 1:B4) (Sigma #L2637) was added at 100 ng/ml final concentration and PBMCs incubated an additional five hours at 37° C., 5% CO2. Following assay completion, PBMC plates were spun down at 2000 rpm for 10 minutes. 100 uL of supernatant was carefully removed and placed into a new 96 well Costar (#3879) plate and stored at −80° C. until further analysis. Meso scale Discovery (MSD) human V-plex assays were used to measure cytokine levels. On day of cytokine analysis, supernatant samples were thawed, diluted with V-plex diluent #2, and directly to MSD plates. Assay was further completed per standard manufacturer's protocol. Cytokine data was normalized to LPS stimulated and unstimulated controls. Prism Graphpad was used to generate IC50 using 4 parameter logistic regression curve, free-fit.

TNFα [6] = experiment: Human whole blood LPS TNFα assay; format: cell-based; details: 20 h pretreatment, LPS 5 h, read-out: IRAK4 human whole blood LPS TNFa inhibition: Average external-IC50
Description: Human Whole blood LPS TNFα assay. Whole blood was collected fresh and plated same day into 96 well plates at 180 μL per well. Compound plates were prepared in DMSO as 8-point dose curves in duplicate, starting dose 2 μM, 5-fold. Compounds are added 20 μL into blood for final 200 μL per well. Compound and cells were incubated at 37° C., 5% CO2 for 20 hours. After twenty hours of pretreatment with the compounds, LPS (01 1 1:B4) (Sigma #L2637) was added at 100 ng/ml final concentration and blood incubated an additional five hours at 37° C., 5% CO2. Following assay completion, whole blood plates were spun down at 2000 rpm for 15 minutes at 4° C. 50 μL of plasma was carefully removed and placed into a new 96 well Costar (#3879) plate and stored at −80° C. until further analysis. Meso scale Discovery (MSD) human V-plex assays were used to measure cytokine levels. On day of cytokine analysis, plasma samples were thawed, diluted with V-plex diluent #2, and directly to MSD plates. Assay was further completed per standard manufacturer's protocol. Cytokine data was normalized to LPS stimulated and unstimulated controls. Prism Graphpad was used to generate IC50 using 4 parameter logistic regression curve, free-fit.

IRAK4 [7] = target: T1, IRAK4; experiment: IRAK4 degradation in OCI-LY10 (DC50); format: cell-based; details: read-out: IRAK4 Degradation in OCI-LY10, DC50
OCI-LY10 [8] = experiment: OCI-LY10 viability, CTG; format: cell-based; details: Homo sapiens, OCI-Ly10; MYD88 Mutant Lines; read-out: OCI-LY10 Viability, CTG IC50
SU-DHL2 = SU-DHL2 viability, CTG; format: cell-based; details: Homo sapiens, SU-DHL-2; MYD88 Mutant Lines; read-out: SU-DHL2 Viability, CTG IC50
SU-DHL6 = SU-DHL6 viability, CTG; format: cell-based; details: Homo sapiens, SU-DHL-6; MYD88 WT Lines; read-out: SU-DHL6 Viability, CTG IC50
U2932 = U2932 viability, CTG; format: cell-based; details: Homo sapiens, U2932; MYD88 WT Lines; read-out: U2932 Viability, CTG IC50
OCI-LY19 = OCI-LY19 viability, CTG; format: cell-based; details: Homo sapiens, OCI-LY19; MYD88 WT Lines; read-out: OCI-LY19 Viability, CTG IC50
IRAK4 [9] = target: T1, IRAK4; experiment: hPBMC IRAK4 degradation flow assay; format: cell-based; details: hPBMC monocyte, 20 hr, flow assay; read-out: IRAK4 degradation in hPBMC monocyte at 20 hr: Average external Abs DC50
How it was run: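 Thawed human PBMCs treated with 10-point, 5-fold compound dilutions (0.1% DMSO) at 37° C. for 20 hours or 4 hours. IRAK4 measured by flow MFI in CD14+ monocytes and CD14− lymphocytes, normalized to DMSO and 10 μM 20-hour control; DC50 and max degradation from 4-parameter logistic fit.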

IL-6 = IL-6 secretion in hPBMC using R848 stimulation; format: cell-based, human; details: Homo sapiens, 20 h, hPBMC, R848 as stim, t = 20 h
[10] = OCI-LY10, 4 hrs, read-out: IRAK4 MSD degradation in OCI-LY10 at 4 hrs: Average external-Abs DC50
[11] = OCI-LY10, 24 hrs, read-out: IRAK4 MSD degradation in OCI-LY10 at 24 hrs: Average external-Abs DC50

T1 sequence (Q9NWZ3 whole entry): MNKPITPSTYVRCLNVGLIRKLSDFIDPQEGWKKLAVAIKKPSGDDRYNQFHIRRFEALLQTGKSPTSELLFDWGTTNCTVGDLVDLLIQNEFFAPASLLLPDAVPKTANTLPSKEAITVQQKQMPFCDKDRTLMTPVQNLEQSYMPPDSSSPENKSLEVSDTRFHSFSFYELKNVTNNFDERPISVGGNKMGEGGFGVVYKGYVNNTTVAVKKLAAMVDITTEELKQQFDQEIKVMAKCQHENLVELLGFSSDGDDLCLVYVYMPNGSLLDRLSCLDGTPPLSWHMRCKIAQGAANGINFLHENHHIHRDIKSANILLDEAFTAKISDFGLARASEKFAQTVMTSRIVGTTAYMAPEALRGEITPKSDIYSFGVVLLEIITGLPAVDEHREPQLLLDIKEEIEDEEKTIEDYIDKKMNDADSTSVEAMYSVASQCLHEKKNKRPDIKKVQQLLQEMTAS

Structure (SMILES)	DC50 (IRAK4 [1]; [10]) [nM]	IC50 (OCI-LY10 [2]) [nM]	IC50 (IRAK4 [3]) [nM]	DC50 (IRAK4 [4]) [nM]	IC50 (TNFα [5]) [nM]	IC50 (TNFα [6]) [nM]	DC50 (IRAK4 [3]) [nM]	DC50 (IRAK4 [1]; [11]) [nM]	DC50 (IRAK4 [7]) [nM]	IC50 (OCI-LY10 [8]) [nM]	IC50 (SU-DHL2) [nM]	IC50 (SU-DHL6) [nM]	IC50 (U2932) [nM]	IC50 (OCI-LY19) [nM]	DC50 (IRAK4 [9]) [nM]	IC50 (IL-6) [nM]
Cn1c(=O)n(C2CCC(=O)NC2=O)c2ccc(CCOCCN3CCO[C@@H](CNC[C@H]4CC[C@H](n5cc(NC(=O)c6cnn7ccc(N8CCNCC8)nc67)c(C(F)F)n5)CC4)C3)cc21 (stereo partly drawn) [I-41]	< 10	> 1000	< 50	< 50	100 to 500	500 to 1000	–	–	–	–	–	–	–	–	–	–
Cn1c(=O)n(C2CCC(=O)NC2=O)c2ccc(CCCCOCCCCNC[C@H]3CC[C@H](n4cc(NC(=O)c5cnn6ccc(N7CCNCC7)nc56)c(C(F)F)n4)CC3)cc21 (stereo partly drawn) [I-42]	10 to 100	> 1000	< 50	< 50	100 to 500	> 1000	–	–	–	–	–	–	–	–	–	–
CN(CCOCCOCCCc1ccc2c(c1)oc(=O)n2C1CCC(=O)NC1=O)C[C@H]1CC[C@H](n2cc(NC(=O)c3coc(-c4ccnc(NCC5CC5)c4)n3)c(C(F)F)n2)CC1 (stereo partly drawn) [I-43]	10 to 100	> 1000	–	100 to 500	100 to 500	100 to 500	50 to 100	–	–	–	–	–	–	–	–	–
Cn1c(=O)n(C2CCC(=O)NC2=O)c2ccc(CN3CCN(CCO[C@H]4C[C@H](N(C)C(=O)[C@H]5CC[C@H](n6cc(NC(=O)c7coc(-c8ccnc(NCC9CC9)c8)n7)c(C(F)F)n6)CC5)C4)CC3)cc21 (stereo partly drawn) [I-45]	< 10	< 50	< 50	50 to 100	< 50	500 to 1000	–	–	–	–	–	–	–	–	–	–
CN(CCCOCCCc1ccc2c(c1)c1cccnc1n2C1CCC(=O)NC1=O)C[C@H]1CC[C@H](n2cc(NC(=O)c3coc(-c4ccnc(NCC5CC5)c4)n3)c(C(F)F)n2)CC1 (stereo partly drawn) [I-46]	10 to 100	500 to 1000	–	100 to 500	100 to 500	> 1000	500 to 1000	10 to 100	–	–	–	–	–	–	–	–
O=C1CCC(n2c3ccc(CCCOCCOCCNCC4CCC(n5cc(NC(=O)c6coc(-c7ccnc(NCC8CC8)c7)n6)c(C(F)F)n5)CC4)cc3c3cccnc32)C(=O)N1 (stereo not drawn) [I-47]	10 to 100	100 to 500	–	100 to 500	100 to 500	> 1000	500 to 1000	10 to 100	–	–	–	–	–	–	–	–
Cn1c(=O)n(C2CCC(=O)NC2=O)c2cccc(CCCOC3CCN(C[C@H]4CC[C@H](n5cc(NC(=O)c6coc(-c7ccnc(NCC8CC8)c7)n6)c(C(F)F)n5)CC4)CC3)c21 (stereo partly drawn) [I-48]	< 10	< 50	< 50	< 50	100 to 500	100 to 500	–	–	–	–	–	–	–	–	–	–
Cn1c(=O)n(C2CCC(=O)NC2=O)c2cccc(CCCOCCN3CCN(C[C@H]4CC[C@H](n5cc(NC(=O)c6coc(-c7ccnc(NCC8CC8)c7)n6)c(C(F)F)n5)CC4)CC3)c21 (stereo partly drawn) [I-58]	< 10	50 to 100	< 50	50 to 100	100 to 500	> 1000	–	–	–	–	–	–	–	–	–	–
CN(C[C@H]1CN(CC#Cc2ccc3c(c2)n(C)c(=O)n3C2CCC(=O)NC2=O)CCO1)C[C@H]1CC[C@H](n2cc(NC(=O)c3coc(-c4ccnc(NCC5CC5)c4)n3)c(C(F)F)n2)CC1 (stereo partly drawn) [I-61]	10 to 100	100 to 500	–	100 to 500	100 to 500	> 1000	50 to 100	–	–	–	–	–	–	–	–	–
CN(CCCOCCCc1ccc2c(c1)n(C)c(=O)n2C1CCC(=O)NC1=O)C[C@H]1CC[C@H](n2cc(NC(=O)c3coc(-c4ccnc(NCC5CC5)c4)n3)c(C(F)F)n2)CC1 (stereo partly drawn) [I-62]	< 10	50 to 100	< 50	< 50	100 to 500	> 1000	–	–	–	–	–	–	–	–	–	–
Cn1c(=O)n(C2CCC(=O)NC2=O)c2cccc(CCCOCC3CN(C[C@H]4CC[C@H](n5cc(NC(=O)c6coc(-c7ccnc(NCC8CC8)c7)n6)c(C(F)F)n5)CC4)C3)c21 (stereo partly drawn) [I-65]	< 10	< 50	< 50	50 to 100	< 50	> 1000	–	–	–	–	–	–	–	–	–	–
CN(C[C@H]1CC[C@H](n2cc3cc(NC(=O)c4cccc(C(F)(F)F)n4)c(C(C)(C)O)cc3n2)CC1)C1CCN(Cc2cccc3c2n(C)c(=O)n3C2CCC(=O)NC2=O)CC1 (stereo partly drawn) [I-191]	< 10	> 1000	–	–	–	–	–	–	4	> 10000	> 10000	5600	> 10000	> 10000	< 10	1 to 10
CC[C@@H]1CC(=O)N[C@@H]1COc1ncc(C#C[C@H]2CC[C@H](CN3CCC(OCCCc4cccc5c4n(C)c(=O)n5C4CCC(=O)NC4=O)CC3)CC2)c2cc(C(N)=O)c(OC)cc12 (stereo partly drawn) [I-229]	10 to 100	> 1000	–	–	–	–	–	10 to 100	26	3500	> 10000	4100	> 10000	> 10000	–	–
